According to publication PMC12150326 (The Journal of Organic Chemistry, 2025):

Experiments:
[1] = biological target: colchicine site of bovine brain tubulin; type: binding; settings: tubulin binding constant, 25 °C
Procedure: Inhibition of this fluorescence increase was measured and converted to K d for the test compound as described.

bovine brain tubulin = experiment: Tubulin polymerization inhibition; type: biochemical; settings: 10 μM tubulin
Procedure: Inhibition of tubulin polymerization was determined as described previously. In brief, 10 μM bovine brain tubulin (PurSolutions, LLC (puresoluble.com)) was incubated under conditions strongly promoting polymerization of tubulin (1 M NaGlutamate, 0.1 M Mes (Morpholinoethanesulfonic acid), 1 mM MgCl2, 0.5 mM GTP, pH 6.9), in the absence or presence of 3.3 or 33 μM test compound, incubated for 30 min at 37 °C, then centrifuged at 100,000g for 8 min, and the top 3/4 of the supernatant removed. Protein concentration was measured, and polymerization was determined as pelletable protein lost from the supernatant.

A498 = type: cell-based, human
Procedure: (§1) (aR)-6, (aS)-6, (aS)-iso -6, and (aR)-iso -6 were submitted to the 60 Cell Screen panel and evaluated at 5 doses (100 μM, 10 μM, 1 μM, 0.1 μM, and 0.01 μM). […] The complete report from this submission is available at the publisher’s Web site as a separate Supporting Information file. For COMPARE analysis, TGI levels of response for (aR)-DM-MTC (6) and (aS)-iso-DM-MTC were compared to those of several established tubulin inhibitors previously tested in the NCI-60 screen.

HCT-15 = type: cell-based, human
Procedure: as §1

MDA-MB-468 = type: cell-based, human
Procedure: as §1

SK-MEL-28 = type: cell-based, human
Procedure: as §1

SK-OV-3 = type: cell-based, human
Procedure: as §1

SF-295 = type: cell-based, human
Procedure: as §1

UO-31 = type: cell-based, human
Procedure: as §1

CAKI-1 = type: cell-based, human
Procedure: as §1

U251 = type: cell-based, human
Procedure: as §1

NCI-H226 = type: cell-based, human
Procedure: as §1

NCI-H23 = type: cell-based, human
Procedure: as §1

HT29 = type: cell-based, human
Procedure: as §1

ACHN = type: cell-based, human
Procedure: as §1

RXF 393 = type: cell-based, human
Procedure: as §1

OVCAR-5 = type: cell-based, human
Procedure: as §1

MCF7 = type: cell-based, human
Procedure: as §1

NCI 60 cell lines = type: cell-based, human
Procedure: as §1

UACC-257 = type: cell-based, human
Procedure: as §1

M14 = type: cell-based, human
Procedure: as §1

HCT-116 = type: cell-based, human
Procedure: as §1

BT-549 = type: cell-based, human
Procedure: as §1

SF-539 = type: cell-based, human
Procedure: as §1

COc1cc(C)c(-c2ccc(=O)c(OC)cc2C)c(OC)c1OC (single isomer, unassigned) [(aR)-iso-6]
Kd [1]: nb | Polymerization Inhibition (%) 3.3 μM (bovine brain tubulin; 3.3 μM compound): 0% | Polymerization Inhibition (%) 33 μM (bovine brain tubulin; 33 μM compound): 0% | Log10GI50 (A498): > -4.00 Molar | Log10LC50 (A498): > -4.00 Molar | Log10TGI (A498): > -4.00 Molar | Log10GI50 (HCT-15): > -4.00 Molar | Log10LC50 (HCT-15): > -4.00 Molar | Log10TGI (HCT-15): > -4.00 Molar | Log10GI50 (MDA-MB-468): > -4.00 Molar | Log10LC50 (MDA-MB-468): > -4.00 Molar | Log10TGI (MDA-MB-468): > -4.00 Molar | Log10GI50 (SK-MEL-28): > -4.00 Molar | Log10LC50 (SK-MEL-28): > -4.00 Molar | Log10TGI (SK-MEL-28): > -4.00 Molar | Log10GI50 (SK-OV-3): > -4.00 Molar | Log10LC50 (SK-OV-3): > -4.00 Molar | Log10TGI (SK-OV-3): > -4.00 Molar | Log10GI50 (SF-295): > -4.00 Molar | Log10LC50 (SF-295): > -4.00 Molar | Log10TGI (SF-295): > -4.00 Molar | Log10GI50 (UO-31): > -4.00 Molar | Log10LC50 (UO-31): > -4.00 Molar | Log10TGI (UO-31): > -4.00 Molar | Log10GI50 (CAKI-1): > -4.00 Molar | Log10LC50 (CAKI-1): > -4.00 Molar | Log10TGI (CAKI-1): > -4.00 Molar | Log10GI50 (U251): > -4.00 Molar | Log10LC50 (U251): > -4.00 Molar | Log10TGI (U251): > -4.00 Molar | Log10GI50 (NCI-H226): > -4.00 Molar | Log10LC50 (NCI-H226): > -4.00 Molar | Log10TGI (NCI-H226): > -4.00 Molar | Log10GI50 (NCI-H23): > -4.00 Molar | Log10LC50 (NCI-H23): > -4.00 Molar | Log10TGI (NCI-H23): > -4.00 Molar | Log10GI50 (HT29): > -4.00 Molar | Log10LC50 (HT29): > -4.00 Molar | Log10TGI (HT29): > -4.00 Molar | Log10GI50 (ACHN): > -4.00 Molar | Log10LC50 (ACHN): > -4.00 Molar | Log10TGI (ACHN): > -4.00 Molar | Log10GI50 (RXF 393): > -4.00 Molar | Log10LC50 (RXF 393): > -4.00 Molar | Log10TGI (RXF 393): > -4.00 Molar | Log10GI50 (OVCAR-5): > -4.00 Molar | Log10LC50 (OVCAR-5): > -4.00 Molar | Log10TGI (OVCAR-5): > -4.00 Molar | Log10GI50 (MCF7): > -4.00 Molar | Log10LC50 (MCF7): > -4.00 Molar | Log10TGI (MCF7): > -4.00 Molar | cytotoxicity at the highest concentration tested (NCI 60 cell lines; 100 μM): not cytotoxic | Log10 Range at TGI (NCI 60 cell lines; NCI-60 cell line selectivity): 0 | GI50 (NCI 60 cell lines; NCI-60 mean): > 100 µM | Mean TGI (NCI 60 cell lines; NCI-60 mean total growth inhibition): > 100 µM | Delta Log10LC50 (NCI 60 cell lines; mean graph): 0 | Delta Log10TGI (NCI 60 cell lines; mean graph): 0 | _MID Log10GI50 (NCI 60 cell lines; mean graph midpoint): -4.01 Molar | _MID Log10LC50 (NCI 60 cell lines; mean graph midpoint): -4.0 Molar | _MID Log10TGI (NCI 60 cell lines; mean graph midpoint): -4.0 Molar | Log10GI50 (UACC-257): > -4.00 Molar | Log10LC50 (UACC-257): > -4.00 Molar | Log10TGI (UACC-257): > -4.00 Molar | Log10GI50 (M14): > -4.00 Molar | Log10LC50 (M14): > -4.00 Molar | Log10TGI (M14): > -4.00 Molar | Log10GI50 (HCT-116): > -4.00 Molar | Log10LC50 (HCT-116): > -4.00 Molar | Log10TGI (HCT-116): > -4.00 Molar | Log10GI50 (BT-549): > -4.00 Molar | Log10LC50 (BT-549): > -4.00 Molar | Log10TGI (BT-549): > -4.00 Molar | Log10GI50 (SF-539): > -4.00 Molar | Log10LC50 (SF-539): > -4.00 Molar | Log10TGI (SF-539): > -4.00 Molar
